Laboratory results as given in publication PMC7450057, “Enhancing intracellular accumulation and target engagement of PROTACs with reversible covalent chemistry” (Nature Communications, 2020).
Values joined by “and” are separate entries in the source; they are usually repeats but may differ in a detail not shown here. Equal entries are not always repeated. Where two headings read alike, the source gives them in different places.

Columns and labels:
BTK-NanoLuc fusion = target: T1, BTK-NanoLuc fusion (Homo sapiens, UniProt Q06187); test: NanoBRET BTK in-cell target engagement assay; assay type: cell-based
T1 construct: host or cells: HEK 293T/17
T1 sequence (Q06187 whole entry, the tested form may be a part): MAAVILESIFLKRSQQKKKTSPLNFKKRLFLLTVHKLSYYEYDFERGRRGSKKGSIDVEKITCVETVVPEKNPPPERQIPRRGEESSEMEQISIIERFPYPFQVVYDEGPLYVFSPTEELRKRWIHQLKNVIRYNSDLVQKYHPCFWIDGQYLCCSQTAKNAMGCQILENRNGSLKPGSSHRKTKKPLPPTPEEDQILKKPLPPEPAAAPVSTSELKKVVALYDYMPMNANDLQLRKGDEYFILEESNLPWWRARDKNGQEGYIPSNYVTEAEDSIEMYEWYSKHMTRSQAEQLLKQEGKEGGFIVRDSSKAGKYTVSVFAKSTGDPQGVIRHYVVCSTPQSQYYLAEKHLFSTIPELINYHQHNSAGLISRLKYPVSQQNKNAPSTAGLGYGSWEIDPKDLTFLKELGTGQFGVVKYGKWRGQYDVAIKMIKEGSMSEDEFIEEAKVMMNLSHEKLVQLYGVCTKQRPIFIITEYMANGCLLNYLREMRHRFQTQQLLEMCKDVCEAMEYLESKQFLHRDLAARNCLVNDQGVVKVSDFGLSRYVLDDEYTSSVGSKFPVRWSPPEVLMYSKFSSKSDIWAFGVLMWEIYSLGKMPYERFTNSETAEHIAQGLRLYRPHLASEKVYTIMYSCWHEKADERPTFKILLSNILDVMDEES
Summary of the method: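 Tracer-displacement IC50 derived from background-corrected BRET ratio (450 nm donor, 610 nm acceptor) in live HEK293/T17 cells transfected with BTK-NanoLuc. Cells were exposed for 2 h at 37 °C to 1.0 µM tracer plus 5-fold serial dilutions of compound from 10 µM.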

[1] = target: truncated Cereblon protein (Homo sapiens, UniProt Q96SW2); test: CRBN binding assay (fluorescence quenching); conditions: for Fluorescence Intensity: Supplementary Figure 11, replicates
Chain of truncated Cereblon protein (Q96SW2 318-426): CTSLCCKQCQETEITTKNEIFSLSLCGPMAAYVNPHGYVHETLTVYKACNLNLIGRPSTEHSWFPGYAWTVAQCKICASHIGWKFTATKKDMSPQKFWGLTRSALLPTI
Procedure: The Kd values of compounds to CRBN were measured based on fluorescence quenching after compounds binding to CRBN. […] All the compounds were dissolved in DMSO (10 mM) as stock solutions. The final drug concentration is 100 nM. […] Fluorescence intensity values for control wells (assay buffer only) were subtracted from each data point prior to analysis. The Kd was calculated using GraphPad Prism with the following equation curve fit. I=I0−If×Kd/P0+Kd+If

[2] = Permeability by lipid-PAMPA method (Pharmaron); assay type: in vitro ADME; conditions: PAMPA
Procedure: The permeability of compounds was measured using Lipid-PAMPA method by Pharmaron. Preparation of stock solutions: testosterone and methotrexate were used as control compounds in this assay. The stock solutions of positive controls were prepared in DMSO or acetonitrile at the concentration of 10 mM. Prepare a stock solution of compounds in DMSO at the concentration of 10 mM, and further dilute with PBS (pH 7.4). […]
Assay procedures: prepare a 1.8% solution (w/v) of lecithin in dodecane, and sonicate the mixture to ensure a complete dissolution. Carefully pipette 5 μL of the lecithin/dodecane mixture into each acceptor plate well (top compartment), avoiding pipette tip contact with the membrane. Immediately after the application of the artificial membrane (within 10 min), add 300 μL of PBS (pH 7.4) solution to each well of the acceptor plate. Add 300 μL of drug-containing solutions to each well of the donor plate (bottom compartment) in triplicate. Slowly and carefully place the acceptor plate into the donor plate, making sure the underside of the membrane is in contact with the drug-containing solutions in all wells. Replace the plate lid and incubate at 25 °C, 60 rpm for 16 h. After incubation, aliquots of 50 μL from each well of acceptor and donor plate are transferred into a 96-well plate. Add 450 μL of methanol (containing IS: 100 nM Alprazolam, 200 nM Caffeine, 100 nM Tolbutamide) into each well. Cover with plate lid. Vortex at 750 rpm for 100 s. Samples were centrifuged at 3220 × g for 20 min. Determine the compound concentrations by LC/MS/MS. The effective permeability (Pe), in units of centimeter per second, can be calculated using the following equation: LogPe=LogC×−Ln1−drugacceptor/drugequilibrium

BTK = BTK (Homo sapiens, UniProt Q06187); test: In vitro BTK kinase assay (PhosphoSens); assay type: biochemical; parameters: purchased SignalChem B10-10H-10
Chain of BTK (Q06187 whole entry): as the sequence (Q06187 whole entry, the tested form may be a part) above
Procedure: BTK kinase activity inhibition IC50 was measured by PhosphoSens® Kinase Assay Kit (Assay Quant Technologies Inc., Cat.# CSKS-AQT0101K). […] Active recombinant BTK was purchased from SignalChem (Cat.# B10-10H-10). All the drugs (3 warhead control and 4 PROTACs) were dissolved in DMSO (10 mM). […] To calculate the IC50, subtract the background fluorescence determined with the “no kinase” control for each time point from the total signal to obtain corrected Relative Fluorescence Units (RFU) values. Plot the corrected RFU vs. Time for each inhibitor concentration and determine the initial reaction rates (slope of the linear portion) for each progress curve for each inhibitor concentration. Then plot velocity (RFU corrected/minute) vs [inhibitor] and determine the IC50 using a 4-parameter logistic fit.

MOLM-14 cells = test: AlamarBlue cell viability assay, MOLM-14; conditions: for MOLM-14 Cell Viability%: Figure 2f, 5 replicates
Procedure: The IC50 was calculated using GraphPad Prism software with a four-parameter dose-response curve fit.

## CN(CCCNC(=O)CNc1cccc2c1C(=O)N(C1CCC(=O)NC1=O)C2=O)C(C)(C)C=C(C#N)C(=O)N1CCC[C@@H](n2nc(-c3ccc(Oc4ccccc4)cc3)c3c(N)ncnc32)C1 (some centres unmarked) [RC-1]
BTK-NanoLuc fusion; Figure 3c, 1.00E-05 M, triplicates
  NanoBRET(%): 5.754% and 14.0151% and 10.6773%
BTK-NanoLuc fusion; Figure 3c, 1.60E-08 M, triplicates
  NanoBRET(%): 84.9586% and 87.9015% and 82.5703%
BTK-NanoLuc fusion; Figure 3c, 2.00E-06 M, triplicates
  NanoBRET(%): 6.342% and 5.596% and 5.448%
BTK-NanoLuc fusion; Figure 3c, 3.20E-09 M, triplicates
  NanoBRET(%): 98.0219% and 99.3574% and 101.289%
BTK-NanoLuc fusion; Figure 3c, 4.00E-07 M, triplicates
  NanoBRET(%): 9.4506% and 5.015% and 9.59%
BTK-NanoLuc fusion; Figure 3c, 8.00E-08 M, triplicates
  NanoBRET(%): 24.5688% and 19.6512% and 23.4022%
BTK-NanoLuc fusion; Figure 3d, 1.00E-05 M, triplicates
  NanoBRET(%): 9.378% and 8.307% and 3.455%
BTK-NanoLuc fusion; Figure 3d, 1.60E-08 M, triplicates
  NanoBRET(%): 87.0885% and 73.1635% and 80.126%
BTK-NanoLuc fusion; Figure 3d, 2.00E-06 M, triplicates
  NanoBRET(%): 4.9185% and 3.718% and 8.9958%
BTK-NanoLuc fusion; Figure 3d, 3.20E-09 M, triplicates
  NanoBRET(%): 95.2579% and 79.7394% and 93.8869%
BTK-NanoLuc fusion; Figure 3d, 4.00E-07 M, triplicates
  NanoBRET(%): 11.2221% and 10.3003% and 9.486%
BTK-NanoLuc fusion; Figure 3d, 8.00E-08 M, triplicates
  NanoBRET(%): 50.6504% and 43.13% and 35.3416%
BTK-NanoLuc fusion; HEK-293 cells, BTK tracer 1.0 µM, Table 1 / Fig. 3c, triplicates, read-out: BTK TE IC50,TE
  IC50: 43 nM
BTK-NanoLuc fusion; HEK-293 cells, BTK tracer 1.0 µM, experiment of Fig. 3f, read-out: BTK target engagement IC50
  IC50: 33 nM
BTK-NanoLuc fusion; Kd (BTK)/IC50,TE (BTK)
  K′P,D (relative intracellular accumulation coefficient): 1.5 × 10^−1
BTK-NanoLuc fusion; at 40 nM
  BTK target engagement: 50%
BTK-NanoLuc fusion; at 200 nM
  BTK target engagement: 90%
BTK-NanoLuc fusion; experiment of Fig. 3d, read-out: BTK target engagement IC50
  IC50: 59 nM
[1]; CRBN 0 μM
  Fluorescence Intensity: 4127.8 and 4128.8 and 3844.8
[1]; CRBN 0.734375 μM
  Fluorescence Intensity: 3220.8 and 3187.8 and 3673.8
[1]; CRBN 1.46875 μM
  Fluorescence Intensity: 3204.8 and 3148.8 and 2908.8
[1]; CRBN 2.9375 μM
  Fluorescence Intensity: 2864.8 and 2662.8 and 2860.8
[1]; CRBN 5.875 μM
  Fluorescence Intensity: 2528.8 and 2598.8 and 2686.8
[1]; CRBN 11.75 μM
  Fluorescence Intensity: 1735.8 and 1776.8 and 2083.8
[1]; CRBN 23.5 μM
  Fluorescence Intensity: 1563.8 and 1722.8 and 1455.8
[1]; truncated Cereblon protein, fluorescence quenching, triplicates
  Kd: 4200 nM
[2]; Recovery%
  recovery at 16 h, 10 μM: 25.1%
[2]; pH 7.4
  Papp at 16 h, 10 μM: < 0.00692 ×10⁻⁶ cm/s
BTK; AssayQuant BTK assay kit, 2.5 nM BTK, 1 mM ATP, duplicates, read-out: BTK inhibition IC50
  IC50: 1.8 nM
BTK; Supplementary Figure 5, drug concentration 2.56 pM, replicates, read-out: Inhibition(%)
  activity at 2.56 pM: 87.3%
BTK; Supplementary Figure 5, drug concentration 12.8 pM, replicates, read-out: Inhibition(%)
  activity at 12.8 pM: 93.2%
BTK; Supplementary Figure 5, drug concentration 64 pM, replicates, read-out: Inhibition(%)
  activity at 64 pM: 89.4%
BTK; Supplementary Figure 5, drug concentration 320 pM, replicates, read-out: Inhibition(%)
  activity at 0.00032 µM: 87.3%
BTK; Supplementary Figure 5, drug concentration 1600 pM, replicates, read-out: Inhibition(%)
  activity at 0.0016 µM: 55%
BTK; Supplementary Figure 5, drug concentration 8000 pM, replicates, read-out: Inhibition(%)
  activity at 0.008 µM: 8.41%
BTK; Supplementary Figure 5, drug concentration 40000 pM, replicates, read-out: Inhibition(%)
  activity at 0.04 µM: 3.46%
BTK; Supplementary Figure 5, drug concentration 200000 pM, replicates, read-out: Inhibition(%)
  activity at 0.2 µM: 2.91%
BTK; Supplementary Figure 5, drug concentration 1000000 pM, replicates, read-out: Inhibition(%)
  activity at 1 µM: 2.99%
MOLM-14 cells; 1.00E-05 M
  MOLM-14 Cell Viability%: 9.063% and 7.786% and 9.631% and 4.44% and 5.17%
MOLM-14 cells; 1.60E-08 M
  MOLM-14 Cell Viability%: 88.4631% and 84.0227% and 77.0073% and 72.5061% and 64.8418%
MOLM-14 cells; 2.00E-06 M
  MOLM-14 Cell Viability%: 14.0511% and 10.5434% and 12.6318% and 8.942% and 10.7462%
MOLM-14 cells; 3.20E-09 M
  MOLM-14 Cell Viability%: 89.923% and 89.9432% and 89.2741% and 70.2555% and 64.2336%
MOLM-14 cells; 4.00E-07 M
  MOLM-14 Cell Viability%: 53.7916% and 40.7948% and 45.6813% and 36.6383% and 39.4972%
MOLM-14 cells; 6.40E-10 M
  MOLM-14 Cell Viability%: 94.6269% and 96.3301% and 81.3058% and 78.386% and 72.2831%
MOLM-14 cells; 8.00E-08 M
  MOLM-14 Cell Viability%: 69.5864% and 88.0779% and 68.3495% and 63.8078% and 82.5426%
MOLM-14 cells; Homo sapiens, MOLM-14, 72 h, read-out: Cell viability IC50, MOLM-14 cells, 72 h, Alamar Blue
  IC50: 300 nM
MOLM-14 cells; read-out: Cell viability IC50, MOLM-14 cells, 72 h, Alamar Blue
  IC50: 310 nM
